These results are taken from patent publication US8252723B2, “Substituted 1-(3-pyridinyl)pyrazol-4-ylacetic acids, processes for their preparation and their use as herbicides and plant growth regulators” (Bayer CropScience AG, priority 2006, dated 2012).

In the experiment the test system is summer wheat of the cultivar 'Triso'. Put plainly: Plant growth regulation test: culm stabilization of crop plants. It counts as in vivo. Conditions: application rate of 30 to 300 g of active substance per hectare, treated at stage BBCH 31, culm length measured after ears had formed. As to the method:
With stirring, the compound of the formula (I) in question was, in the form of a water-dispersible powder, together with a surfactant (customary adjuvant at an application rate of 1 l/ha), mixed with water such that a homogenous spray liquor was formed, and applied at an application rate of 300 l of water/ha (converted).
Seeds of summer wheat of the cultivar ‘Triso’ were sown at a depth of 1 cm in plant pots and cultivated outdoors until treatment.
The plants were treated on a laboratory track sprayer with spray liquors of the test substances at macrostage 3 after having reached about 10% of the maximum longitudinal growth typical for the cultivar (stage BBCH 31) and, after the treatment, returned outdoors.
After the ears had formed, the length of the culms were measured. The culm stabilization was evaluated as a percentage of the untreated control.
Regarding `Cc1nn(-c2cccnc2)c(-c2ccc(Cl)cn2)c1CC(=O)O` [Example 1-110], the “longitudinal growth (culm length) of summer wheat” value (“longitudinal growth (culm length)” below) is “effectively shortened”.

Turning to `Cc1ccc(-c2c(CC(=O)O)c(C)nn2-c2cccnc2)nc1` [Example 1-113], the “longitudinal growth (culm length)” value was “effectively shortened”.

Turning to `Cc1nn(-c2cccnc2)c(-c2ccc(F)cc2)c1CC(=O)O` [Example 1-120], the “longitudinal growth (culm length)” value is given as “effectively shortened”.

Regarding `Cc1nn(-c2cccnc2)c(-c2cccnc2)c1CC(=O)O` [Example 1-125], the “longitudinal growth (culm length)” value is on record as “effectively shortened”.

For the molecule `Cc1ccncc1-n1nc(C)c(CC(=O)O)c1-c1ccccn1` [Example 1-132], the “longitudinal growth (culm length)” value was “effectively shortened”.

`Cc1ncccc1-n1nc(C)c(CC(=O)O)c1-c1ccccc1` [Example 1-135]: the “longitudinal growth (culm length)” value is “effectively shortened”.

With `Cc1ccnc(-c2c(CC(=O)O)c(C)nn2-c2cccnc2)c1` [Example 1-136], the “longitudinal growth (culm length)” value was “effectively shortened”.

With `Cc1ccnc(-c2c(CC(=O)O)c(C)nn2-c2cnccc2C)c1` [Example 1-137], the “longitudinal growth (culm length)” value is on record as “effectively shortened”.

Consider `Cc1nn(-c2cccnc2)c(-c2ccc(C(F)(F)F)cn2)c1CC(=O)O` [Example 1-144], for which the “longitudinal growth (culm length)” value was “effectively shortened”.

With `COc1cccc(-c2c(CC(=O)O)c(C)nn2-c2cccnc2)n1` [Example 1-145], the “longitudinal growth (culm length)” value is “effectively shortened”.

Turning to `O=C(O)Cc1c(C2CC2)nn(-c2cccnc2)c1-c1ccc(Cl)cc1` [Example 1-146], the “longitudinal growth (culm length)” value is reported as “effectively shortened”.

As to `COC(=O)Cc1c(-c2ccccc2)nn(-c2cccnc2)c1-c1ccccc1` [Example 2-1], the “longitudinal growth (culm length)” value is reported as “effectively shortened”.

In the case of `COC(=O)Cc1c(C)nn(-c2cccnc2)c1-c1ccccc1` [Example 2-2], the “longitudinal growth (culm length)” value is reported as “effectively shortened”.

For `COC(=O)Cc1c(C)nn(-c2cccnc2)c1-c1ccco1` [Example 2-4], the “longitudinal growth (culm length)” value is “effectively shortened”.

With `COC(=O)Cc1c(C)nn(-c2ccc(OC)nc2)c1-c1ccccc1` [Example 2-5], the “longitudinal growth (culm length)” value was “effectively shortened”.

For the molecule `COC(=O)C(C)c1c(C)nn(-c2cnccc2C)c1-c1ccccc1` (stereo not drawn) [Example 2-6], the “longitudinal growth (culm length)” value is recorded as “effectively shortened”.

For the molecule `COC(=O)Cc1c(C)nn(-c2ccc(Cl)nc2)c1-c1ccccc1` [Example 2-7], the “longitudinal growth (culm length)” value was “effectively shortened”.

Take `COC(=O)Cc1c(C)nn(-c2cnccc2C(F)(F)F)c1-c1ccccc1` [Example 2-8]: the “longitudinal growth (culm length)” value was “effectively shortened”.

As for `COC(=O)Cc1c(C)nn(-c2ccc(C(F)(F)F)nc2)c1-c1ccccc1` [Example 2-9], the “longitudinal growth (culm length)” value is reported as “effectively shortened”.

`COC(=O)Cc1c(C)nn(-c2ccc(C)nc2C)c1-c1ccccc1` [Example 2-11]: the “longitudinal growth (culm length)” value is “effectively shortened”.

For the molecule `COC(=O)Cc1c(C)nn(-c2ccc(Cl)nc2Cl)c1-c1ccccc1` [Example 2-12], the “longitudinal growth (culm length)” value is “effectively shortened”.

In the case of `COC(=O)Cc1c(C)nn(-c2cnccc2C)c1-c1ccc(OC)cc1` [Example 2-13], the “longitudinal growth (culm length)” value is “effectively shortened”.

Turning to `COC(=O)Cc1c(C)nn(-c2cccnc2)c1-c1ccc(OC)cc1` [Example 2-14], the “longitudinal growth (culm length)” value is “effectively shortened”.

`COC(=O)Cc1c(C)nn(-c2cccnc2)c1-c1ccc(C)cc1` [Example 2-16]: the “longitudinal growth (culm length)” value is recorded as “effectively shortened”.

For `COC(=O)Cc1c(C)nn(-c2cccnc2)c1-c1cccc(C(F)(F)F)c1` [Example 2-18], the “longitudinal growth (culm length)” value is listed as “effectively shortened”.

`COC(=O)Cc1c(C)nn(-c2cnccc2C)c1-c1cccc(C(F)(F)F)c1` [Example 2-19]: the “longitudinal growth (culm length)” value is on record as “effectively shortened”.

On to `COC(=O)Cc1c(C)nn(-c2cnccc2C)c1-c1ccc(Cl)c(Cl)c1` [Example 2-20], for which the “longitudinal growth (culm length)” value is “effectively shortened”.

For `COC(=O)Cc1c(C)nn(-c2cnccc2C)c1-c1cccc(Cl)c1` [Example 2-21], the “longitudinal growth (culm length)” value was “effectively shortened”.

Turning to `COC(=O)Cc1c(C)nn(-c2cnccc2C)c1-c1ccccc1Cl` [Example 2-22], the “longitudinal growth (culm length)” value was “effectively shortened”.

As for `COC(=O)Cc1c(C)nn(-c2cnccc2C)c1-c1ccc(Cl)cc1Cl` [Example 2-23], the “longitudinal growth (culm length)” value is “effectively shortened”.

Turning to `COC(=O)Cc1c(C)nn(-c2cnccc2C)c1-c1ccc(C(F)(F)F)cc1` [Example 2-24], the “longitudinal growth (culm length)” value is reported as “effectively shortened”.

In the case of `COC(=O)Cc1c(C)nn(-c2cnccc2C)c1-c1ccc(Cl)cc1` [Example 2-25], the “longitudinal growth (culm length)” value is “effectively shortened”.

On to `COC(=O)Cc1c(C)nn(-c2cccnc2)c1-c1ccc(Cl)cc1` [Example 2-26], for which the “longitudinal growth (culm length)” value is “effectively shortened”.

Turning to `COC(=O)Cc1c(C)nn(-c2cccnc2)c1-c1ccc(Cl)c(Cl)c1` [Example 2-27], the “longitudinal growth (culm length)” value was “effectively shortened”.

As to `COC(=O)Cc1c(C)nn(-c2cccnc2)c1-c1ccc(C(F)(F)F)cc1` [Example 2-28], the “longitudinal growth (culm length)” value was “effectively shortened”.

Consider `COC(=O)Cc1c(C)nn(-c2cnccc2Cl)c1-c1ccc(Cl)cc1` [Example 2-29], for which the “longitudinal growth (culm length)” value is given as “effectively shortened”.

In the case of `COC(=O)Cc1c(C)nn(-c2cnccc2Cl)c1-c1ccccc1` [Example 2-30], the “longitudinal growth (culm length)” value is on record as “effectively shortened”.

`COC(=O)Cc1c(C)nn(-c2cccnc2)c1-c1ccccc1Cl` [Example 2-31]: the “longitudinal growth (culm length)” value is reported as “effectively shortened”.

With `COC(=O)Cc1c(C)nn(-c2cnccc2C)c1-c1ccc(C(C)(C)C)cc1` [Example 2-32], the “longitudinal growth (culm length)” value is reported as “effectively shortened”.

As for `COC(=O)Cc1c(C)nn(-c2cnccc2C)c1-c1cc(C)cc(C)c1` [Example 2-33], the “longitudinal growth (culm length)” value is recorded as “effectively shortened”.

With `COC(=O)Cc1c(C)nn(-c2cnccc2OC)c1-c1ccc(Cl)cc1` [Example 2-35], the “longitudinal growth (culm length)” value is given as “effectively shortened”.

For `COC(=O)Cc1c(C)nn(-c2cnccc2C)c1-c1ccc(C)cc1` [Example 2-36], the “longitudinal growth (culm length)” value is “effectively shortened”.

As to `COC(=O)Cc1c(C)nn(-c2cnccc2C)c1-c1ccc(F)cc1` [Example 2-37], the “longitudinal growth (culm length)” value was “effectively shortened”.

On to `COC(=O)Cc1c(C)nn(-c2cnccc2C)c1-c1cccc(C)c1` [Example 2-38], for which the “longitudinal growth (culm length)” value was “effectively shortened”.

Consider `COC(=O)Cc1c(C)nn(-c2cnccc2C)c1-c1cccc(Br)c1` [Example 2-40], for which the “longitudinal growth (culm length)” value was “effectively shortened”.

For `COC(=O)Cc1c(C)nn(-c2cnccc2C)c1-c1ccc(-c2ccccc2)cc1` [Example 2-41], the “longitudinal growth (culm length)” value is listed as “effectively shortened”.

In the case of `COC(=O)Cc1c(C)nn(-c2cccnc2)c1-c1cc(C)cc(C)c1` [Example 2-43], the “longitudinal growth (culm length)” value was “effectively shortened”.

With `COC(=O)Cc1c(C)nn(-c2cnccc2SC)c1-c1ccccc1` [Example 2-44], the “longitudinal growth (culm length)” value is reported as “effectively shortened”.

`COC(=O)Cc1c(C)nn(-c2cnccc2SC)c1-c1ccc(Cl)cc1` [Example 2-45]: the “longitudinal growth (culm length)” value is given as “effectively shortened”.

Take `COC(=O)Cc1c(C)nn(-c2cccnc2)c1-c1ccc(C)c(Cl)c1` [Example 2-46]: the “longitudinal growth (culm length)” value was “effectively shortened”.

In the case of `COC(=O)Cc1c(C)nn(-c2cccnc2)c1-c1ccc(Cl)c(C(F)(F)F)c1` [Example 2-47], the “longitudinal growth (culm length)” value is reported as “effectively shortened”.

Consider `COC(=O)Cc1c(C)nn(-c2cnccc2C)c1-c1ccc(Cl)c(C(F)(F)F)c1` [Example 2-48], for which the “longitudinal growth (culm length)” value is “effectively shortened”.

Consider `COC(=O)Cc1c(C)nn(-c2cnccc2C)c1-c1ccc(C)c(Cl)c1` [Example 2-49], for which the “longitudinal growth (culm length)” value is “effectively shortened”.

As to `COC(=O)Cc1c(C)nn(-c2cncc(C)c2)c1-c1ccccc1` [Example 2-50], the “longitudinal growth (culm length)” value is reported as “effectively shortened”.

Take `COC(=O)Cc1c(C)nn(-c2cncc(C)c2)c1-c1ccc(Cl)cc1` [Example 2-51]: the “longitudinal growth (culm length)” value was “effectively shortened”.

`COC(=O)Cc1c(C)nn(-c2cnccc2C)c1-c1cccs1` [Example 2-52]: the “longitudinal growth (culm length)” value was “effectively shortened”.

As to `COC(=O)Cc1c(C)nn(-c2cnccc2C)c1-c1sccc1C` [Example 2-53], the “longitudinal growth (culm length)” value is on record as “effectively shortened”.

As for `COC(=O)Cc1c(C)nn(-c2cnccc2C)c1-c1cc(C)cs1` [Example 2-54], the “longitudinal growth (culm length)” value is reported as “effectively shortened”.

For `COC(=O)Cc1c(C)nn(-c2cnccc2C)c1-c1ccc(Cl)s1` [Example 2-55], the “longitudinal growth (culm length)” value is “effectively shortened”.

For the molecule `COC(=O)Cc1c(C)nn(-c2cnccc2C)c1-c1ccsc1` [Example 2-56], the “longitudinal growth (culm length)” value is recorded as “effectively shortened”.
